{
  "source": "paper PMC6429710",
  "about": "“Structure–activity relationships in a series of antiplasmodial thieno[2,3-b]pyridines” (Malaria Journal, 2019)",
  "key": {"PfGSK-3 [1]": {"molecular_target": "T1, PfGSK-3 (Plasmodium falciparum, UniProt O77344)", "T1 construct": "6xHis; made in house; host or cells: Escherichia coli C41", "T1 sequence (O77344 1-440)": "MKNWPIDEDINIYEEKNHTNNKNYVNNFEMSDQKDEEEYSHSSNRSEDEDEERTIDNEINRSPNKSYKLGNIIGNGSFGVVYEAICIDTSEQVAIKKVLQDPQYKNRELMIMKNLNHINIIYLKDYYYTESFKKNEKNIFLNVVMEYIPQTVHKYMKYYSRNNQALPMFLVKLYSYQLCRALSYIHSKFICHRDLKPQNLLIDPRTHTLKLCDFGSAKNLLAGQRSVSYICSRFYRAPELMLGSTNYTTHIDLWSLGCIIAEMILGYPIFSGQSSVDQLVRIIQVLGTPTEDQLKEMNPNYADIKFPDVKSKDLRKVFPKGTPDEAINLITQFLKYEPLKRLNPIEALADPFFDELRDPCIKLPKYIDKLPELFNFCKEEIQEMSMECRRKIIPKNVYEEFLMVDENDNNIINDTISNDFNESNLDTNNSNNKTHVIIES", "format": "biochemical", "conditions": "15 µM ATP; mean of two determinations, range in brackets; read-out: IC50 [µM], PfGSK-3 (radiometric)", "method": "Recombinant GST-PfGSK-His was expressed in Rosetta 2 (DE3) cells and purified on cobalt affinity resin as described previously. Recombinant PfGSK-3 ([…]) was assayed with 48 µM GS-1 peptide as a substrate, in 25 mM Tris–HCl pH 7.5, 10 mM MgCl2, 1 mM EGTA, 1 mM EDTA, 0.5 mg/mL BSA, 5 mM DTT, 2 µg/mL heparin, in the presence of 15 µM [γ-^32P] ATP (3000 Ci/mmol; 1 mCi/mL) (Perkin-Elmer, USA) in a final volume of 25 µL. After 30 min incubation at 30 °C, 8 µL aliquots were spotted onto 1 × 1 cm pieces of P81 phosphocellulose paper (Reaction Biology, Malvern, PA, USA) and 20 s later, the filters were washed five times (for at least 5 min each time) in a solution of 10 mL phosphoric acid/L water. Filters were rinsed in acetone and the dried filters and radioactivity was measured by Cherenkov counting. Blank values were subtracted and activities were expressed in percentage of the maximal activity, i.e. in the absence of inhibitors. Controls were performed with appropriate dilutions of dimethylsulfoxide."}, "PfGSK-3 [2]": {"molecular_target": "T1, PfGSK-3", "assay": "biochemical", "format": "biochemical", "method": "PfGSK-3 was cloned into pOPIN F expression vector [41] using ligation independent cloning (InFusion, Takara Clontech). Expression vector was transformed into Escherichia coli C41 and expression of recombinant PfGSK3-6xHis was induced by incubation with 1 mM IPTG at 16 °C overnight.\nKinase activity was measured using Kinase-Glo Plus Luminescent Kinase Assay (Promega). 20 ng recombinant GSK-3 were incubated for 30 min at 30 °C in the presence of 12 μM GS-1 peptide substrate ([…]pSEDEEE, pS stands for phosphorylated serine, Biaffin GmbH & Co KG/proteinkinase.de) and 6 μM ATP (ultra pure, Promega) in a total volume of 5 μL kinase reaction buffer (40 mM Tris/HCl pH 7.5; 20 mM MgCl2; 0.1 mg/mL BSA). Kinase reaction mix was transferred to a solid white 384 well plate (NUNC, Thermo Scientific) and kinase reaction was stopped by adding 5 μL RT Kinase-Glo reagent. After 10 min luminescence was measured in an EnVision multilabel plate reader (Perkin Elmer, integration time 0.5 s/well). […] All samples were normalized to a negative control (reaction without kinase). Data points were plotted into Graphpad Prism, normalized to a DMSO control and IC50 values were calculated using nonlinear regression."}, "[3]": {"assay": "Kinetic solubility by laser nephelometry", "format": "physicochemical", "conditions": "aqueous phosphate buffer pH 7.4, 1% DMSO, 25 °C, mean ± standard deviation", "method": "Kinetic solubility indicates the solubility of the most rapidly precipitating form. Kinetic solubilities of 1 and 4h were determined by laser nephelometry using the […] nephelometer (BMG LabTech, Ortenberg, Germany) and F-bottom transparent 96-well plates. The instrument uses red laser light (635 nm, 80% intensity), which passes through the 96-well plate and which is scattered by turbid suspensions. Each compound was measured six times at 25 °C by preparing three independent stock solutions in concentrations of 5 to 10 mM in DMSO. From each stock solution two independent dilution series were prepared. Based on preliminary experiments, dilution concentrations were chosen such that at least five to six concentrations below and above the expected point of precipitation were recorded. To the 96-well plate containing 198 μL aqueous phosphate buffer at pH 7.4, 2 μL of each dilution sample in DMSO was added and shaken for 10 s. at 700 rpm (double orbital). […] The pH was adjusted by adding sulfuric acid. First, the plates were scanned without content to quantify the background, which was later subtracted from the obtained values of each individual well. As blank, 2 μL of neat DMSO was added to the phosphate buffer. Close to the point of precipitation, particle concentration can be assumed to be proportional to the intensity of scattered light. […]"}, "HEK293T cells": {"system": "HEK293T cells", "assay": "Cytotoxicity assay on HEK293 cells (PrestoBlue viability)", "format": "cell-based, human", "conditions": "cell viability, 48 h; mean of six determinations, range in brackets; read-out: IC50 [µM], HEK 293T", "method": "HEK293T cells were seeded into a solid black flat bottom 96 well plate (2.5 × 10^4 cells/well) in 200 μL Dulbecco Modified Eagle Medium (DMEM) supplemented with 10% fetal bovine serum and 1% Pen/Strep (final concentration of 100 U/mL Penicillin and 100 μg/mL Streptomycin). Cells were incubated at 37 °C under 5% CO2. After 18 h the supernatant was removed and fresh DMEM containing serial dilutions of compounds was added. Compounds were solubilized in DMSO (final DMSO concentration in HEK293T culture was 0.5%.) Wells containing 0.5% DMSO served as a negative control. Plates were incubated for further 48 h at 37 °C under 5% CO2. To monitor cell viability the supernatant was removed and cells were incubated with 200 μL 10% PrestoBlue (Invitrogen) in PBS at 37 °C. After 30 min fluorescence (λex = 560 nm, λem = 590 nm) was measured in an EnVision multilable plate reader (Perkin Elmer, integration time 0.1 s/well). Data points were plotted into Graphpad Prism, normalized to the DMSO control and IC50 values were calculated using nonlinear regression."}},
  "note": "Read-outs that look alike come from different tables or passages of the source.",
  "data": [
    {"smiles": "CN(C)CCN(C)c1ccc(-c2c(C#N)c(N)nc3sc(C(=O)c4cccc(Cl)c4)c(N)c23)c(Cl)c1", "note": "[4h]", "values": [
      {"measurement": "IC50", "setting": "PfGSK-3 [1]", "result": 0.184, "unit": "µM"},
      {"measurement": "IC50", "setting": "PfGSK-3 [2]; 6 µM ATP, mean of three determinations, range in brackets, read-out: IC50 [µM], PfGSK-3 (Kinase Glo Plus)", "result": 0.72, "unit": "µM"},
      {"measurement": "selectivity index plasmodial versus human GSK-3", "setting": "PfGSK-3 [2]; Kinase Glo Plus assay, PfGSK-3 versus HsGSK-3", "result": 56},
      {"measurement": "S0 pH 7.4, exp (kinetic solubility)", "setting": "[3]", "result": "4.8 ± 0.9", "unit": "µM"},
      {"measurement": "IC50", "setting": "HEK293T cells", "result": 5.56, "unit": "µM"}
    ]}
  ]
}
